From article PMC12505902, “Inhibitors of trehalose-6-phosphate synthase activity in fungal pathogens compromise thermal tolerance pathways” (mBio, 2025) come the findings set out here.

The subject of this assay is C. neoformans WT H99. In words: C. neoformans capsule assay (India Ink). The conditions noted are these: 0.1, 0.5 and 1 mM 4456dh, 72 hours at 30°C, dose-dependent. Type of assay: cell-based. As for the experimental part:
Fig 5 4456dh treatment results in reduced trehalose accumulation and a decrease in Tps1-dependent virulence factors. Trehalose accumulation measurements for C. albicans (A) and C. neoformans (B) cultured at indicated temperatures in the absence or presence of 0.5 mM 4456dh. Trehalose was measured using a colorimetric glucose assay after treatment of cultures with trehalase. Statistical comparisons were done with a one-way analysis of variance (ANOVA) analysis followed by a post hoc Tukey’s test. Error bars represent SE. (C) C. albicans WT strain SC5314 cells were treated with 0.5 mM, 1.0 mM, and 5 mM 4456dh. Untreated C. albicans WT cells and the C. albicans tps1Δ/tps1Δ deletion strain were included in this experiment as positive and negative controls, respectively. Increasing concentrations of 4456dh negatively affect filamentation in C. albicans in YPD plus 10% fetal bovine serum incubated at 37°C for 2 hours. Representative images from two independent experiments are shown. The scale bars represent 10 microns. (D) Analysis of capsule formation in C. neoformans WT H99 using India Ink counter-staining in cells treated with 0.1 mM, 0.5 mM, and 1 mM 4456dh. […] Cells were harvested, stained in India Ink, and analyzed using differential interference contrast imaging. […]
190 (Zeiss). The size of the capsule of > 100 cells per 4456dh treatment was quantified using Image […]

Consider `Cn1cc(-c2csc(NC(=O)Cc3ccccn3)n2)cn1` [Compound 4456dh], for which the capsule production result was “capsule production was affected”.
